In the assay the target is human β-cardiac myosin (Homo sapiens, UniProt P12883). The assay can be described thus: single-molecule harmonic force spectroscopy dose titration. The format is binding.
Chain of human β-cardiac myosin (P12883 1-808): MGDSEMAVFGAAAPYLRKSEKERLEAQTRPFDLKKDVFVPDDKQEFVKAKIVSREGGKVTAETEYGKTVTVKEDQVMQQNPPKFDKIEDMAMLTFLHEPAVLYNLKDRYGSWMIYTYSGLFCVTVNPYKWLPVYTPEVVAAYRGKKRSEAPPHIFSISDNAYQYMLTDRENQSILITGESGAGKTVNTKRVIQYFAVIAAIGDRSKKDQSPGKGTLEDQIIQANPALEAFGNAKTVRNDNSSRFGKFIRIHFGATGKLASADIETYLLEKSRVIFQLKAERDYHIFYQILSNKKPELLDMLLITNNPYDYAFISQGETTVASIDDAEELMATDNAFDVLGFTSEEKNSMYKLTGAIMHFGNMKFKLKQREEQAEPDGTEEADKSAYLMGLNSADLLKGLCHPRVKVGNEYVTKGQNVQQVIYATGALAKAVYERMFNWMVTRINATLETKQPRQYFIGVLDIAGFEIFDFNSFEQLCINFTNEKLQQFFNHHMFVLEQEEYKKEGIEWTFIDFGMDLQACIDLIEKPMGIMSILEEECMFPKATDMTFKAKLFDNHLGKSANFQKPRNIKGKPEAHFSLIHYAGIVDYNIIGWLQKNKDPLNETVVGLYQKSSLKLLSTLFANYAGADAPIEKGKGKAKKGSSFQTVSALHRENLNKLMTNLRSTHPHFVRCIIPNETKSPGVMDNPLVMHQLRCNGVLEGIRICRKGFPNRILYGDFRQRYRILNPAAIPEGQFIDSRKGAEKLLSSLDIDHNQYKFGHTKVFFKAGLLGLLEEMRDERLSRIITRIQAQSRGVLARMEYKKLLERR
Chain of human β-cardiac myosin (P08590 2-195 partner): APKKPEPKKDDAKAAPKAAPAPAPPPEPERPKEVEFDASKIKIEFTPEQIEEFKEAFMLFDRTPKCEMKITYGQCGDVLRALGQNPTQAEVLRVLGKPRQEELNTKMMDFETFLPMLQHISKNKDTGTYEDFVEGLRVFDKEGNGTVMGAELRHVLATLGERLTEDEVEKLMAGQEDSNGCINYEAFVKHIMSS

Usually Kd stands for the free concentration of one partner at which half of the binding sites on the other are occupied at equilibrium, for simple one-to-one binding. In turn, `COC(=O)N1CCN(Cc2cccc(NC(=O)Nc3ccc(C)nc3)c2F)CC1` [OM, omecamtiv mecarbil] came in with a Kd of 0.31 ± 0.05 µM.
